Assay results published in patent US10729680B2, “5-substituted 2-(morpholin-4-yl)-1,7-naphthyridines” (BAYER PHARMA AKTIENGESELLSCHAFT, priority 2016, dated 2020).

Molecular target: full-length human ATR protein (ATR/ATRIP) (Homo sapiens (Human), UniProt Q13535)
Assay: Binding Assay ATR (TR-FRET, tracer A displacement)
Settings: displacement of fluorescent tracer A from GST-ATR/ATRIP
From the text: To determine of binding activity of the test compounds, full-length human ATR protein was expressed and purified together with ATRIP as described above. Furthermore, a fluorescently labelled compound (tracer A as described above) was used as a tracer molecule. Detection of the binding event of the tracer was achieved by time-resolved fluorescence energy transfer (TR-FRET). We used an anti-GST-Terbium antibody (CisBio) that binds to the GST-tag at the N-terminus of ATR-kinase. Excitation of Terbium with 337 nm light results in emission of fluorescent light with 545 nm. In case a tetrameric complex has formed (antiGST-Tb+GST-ATR+Strp2-ATRIP+tracer), part of the energy will be transferred from the Terbium to the fluorophore that itself emits light of 570 nm. Displacement of the fluorescent tracer by a test compound leads to a reduction of the TR-FRET-signal.
For the assay 50 nl of a 100-fold concentrated solution of the test compound in DMSO was pipetted into a black low volume 384 well microtiter plate (MTP, Greiner Bio-One, Frickenhausen, Germany). To prepare the ATR-working solution, ATR/ATRIP stock solution was diluted in assay buffer [50 mM HEPES (pH 7.0), 10 mM MgCl2, 1 mM DTT, 0.01% (w/v) Igepal, 0.01% (w/v) BSA] to 4.2 nM protein concentration (concentration may vary from lot to lot of protein preparation). AntiGST-Tb antibody was diluted to 4.2 nM. The ATR-working solution was incubated for 30 min at 22° C. prior to dispensing to pre-form the complex of antiGST-Tb+GST-ATR+ATRIP. Then, 3 μl of the ATR-working solution were added to the test compound and the mixture was incubated for 10 min at 22° C. to allow pre-binding of the test compounds to ATR/ATRIP. Then, 2 μl of a 100 nM solution of tracer A in assay buffer were added to the ATR-working solution. The resulting mixture was incubated for 30 min at 22° C. The measurement of the TR-FRET signal was performed in a standard HTRF-compatible MTP reader instrument (e.g. BMG Pherastar) by recording the fluorescence emissions at 545 nm and 570 nm after excitation at 337-350 nm. The ratio between emission at 570 nm divided by emission at 545 nm was calculated to give the well ratio. The experimental data (well ratios) were normalised by the following way: positive control contained ATR-working solution plus tracer A solution (=0% inhibition), the negative control contained all components except GST-ATR/ATRIP (=100% inhibition). Usually the compounds were tested on the same MTP in 11 different concentrations in the range of 20 μM to 0.1 nM (20 μM, 5.9 μM, 1.7 μM, 0.51 μM, 0.15 μM, 44 nM, 13 nM, 3.8 nM, 1.1 nM, 0.33 nM and 0.1 nM). The dilution series were prepared separately before the assay on the level of the 100 fold concentrated solutions in DMSO by serial 1:3.4 dilutions in duplicate values for each concentration. IC50 values were calculated by a 4 parameter fit using standard software (GraphPad prism or equivalent).

Chain of full-length human ATR protein (ATR/ATRIP) (Q13535 other isoform, or with tags, fused parts or gaps): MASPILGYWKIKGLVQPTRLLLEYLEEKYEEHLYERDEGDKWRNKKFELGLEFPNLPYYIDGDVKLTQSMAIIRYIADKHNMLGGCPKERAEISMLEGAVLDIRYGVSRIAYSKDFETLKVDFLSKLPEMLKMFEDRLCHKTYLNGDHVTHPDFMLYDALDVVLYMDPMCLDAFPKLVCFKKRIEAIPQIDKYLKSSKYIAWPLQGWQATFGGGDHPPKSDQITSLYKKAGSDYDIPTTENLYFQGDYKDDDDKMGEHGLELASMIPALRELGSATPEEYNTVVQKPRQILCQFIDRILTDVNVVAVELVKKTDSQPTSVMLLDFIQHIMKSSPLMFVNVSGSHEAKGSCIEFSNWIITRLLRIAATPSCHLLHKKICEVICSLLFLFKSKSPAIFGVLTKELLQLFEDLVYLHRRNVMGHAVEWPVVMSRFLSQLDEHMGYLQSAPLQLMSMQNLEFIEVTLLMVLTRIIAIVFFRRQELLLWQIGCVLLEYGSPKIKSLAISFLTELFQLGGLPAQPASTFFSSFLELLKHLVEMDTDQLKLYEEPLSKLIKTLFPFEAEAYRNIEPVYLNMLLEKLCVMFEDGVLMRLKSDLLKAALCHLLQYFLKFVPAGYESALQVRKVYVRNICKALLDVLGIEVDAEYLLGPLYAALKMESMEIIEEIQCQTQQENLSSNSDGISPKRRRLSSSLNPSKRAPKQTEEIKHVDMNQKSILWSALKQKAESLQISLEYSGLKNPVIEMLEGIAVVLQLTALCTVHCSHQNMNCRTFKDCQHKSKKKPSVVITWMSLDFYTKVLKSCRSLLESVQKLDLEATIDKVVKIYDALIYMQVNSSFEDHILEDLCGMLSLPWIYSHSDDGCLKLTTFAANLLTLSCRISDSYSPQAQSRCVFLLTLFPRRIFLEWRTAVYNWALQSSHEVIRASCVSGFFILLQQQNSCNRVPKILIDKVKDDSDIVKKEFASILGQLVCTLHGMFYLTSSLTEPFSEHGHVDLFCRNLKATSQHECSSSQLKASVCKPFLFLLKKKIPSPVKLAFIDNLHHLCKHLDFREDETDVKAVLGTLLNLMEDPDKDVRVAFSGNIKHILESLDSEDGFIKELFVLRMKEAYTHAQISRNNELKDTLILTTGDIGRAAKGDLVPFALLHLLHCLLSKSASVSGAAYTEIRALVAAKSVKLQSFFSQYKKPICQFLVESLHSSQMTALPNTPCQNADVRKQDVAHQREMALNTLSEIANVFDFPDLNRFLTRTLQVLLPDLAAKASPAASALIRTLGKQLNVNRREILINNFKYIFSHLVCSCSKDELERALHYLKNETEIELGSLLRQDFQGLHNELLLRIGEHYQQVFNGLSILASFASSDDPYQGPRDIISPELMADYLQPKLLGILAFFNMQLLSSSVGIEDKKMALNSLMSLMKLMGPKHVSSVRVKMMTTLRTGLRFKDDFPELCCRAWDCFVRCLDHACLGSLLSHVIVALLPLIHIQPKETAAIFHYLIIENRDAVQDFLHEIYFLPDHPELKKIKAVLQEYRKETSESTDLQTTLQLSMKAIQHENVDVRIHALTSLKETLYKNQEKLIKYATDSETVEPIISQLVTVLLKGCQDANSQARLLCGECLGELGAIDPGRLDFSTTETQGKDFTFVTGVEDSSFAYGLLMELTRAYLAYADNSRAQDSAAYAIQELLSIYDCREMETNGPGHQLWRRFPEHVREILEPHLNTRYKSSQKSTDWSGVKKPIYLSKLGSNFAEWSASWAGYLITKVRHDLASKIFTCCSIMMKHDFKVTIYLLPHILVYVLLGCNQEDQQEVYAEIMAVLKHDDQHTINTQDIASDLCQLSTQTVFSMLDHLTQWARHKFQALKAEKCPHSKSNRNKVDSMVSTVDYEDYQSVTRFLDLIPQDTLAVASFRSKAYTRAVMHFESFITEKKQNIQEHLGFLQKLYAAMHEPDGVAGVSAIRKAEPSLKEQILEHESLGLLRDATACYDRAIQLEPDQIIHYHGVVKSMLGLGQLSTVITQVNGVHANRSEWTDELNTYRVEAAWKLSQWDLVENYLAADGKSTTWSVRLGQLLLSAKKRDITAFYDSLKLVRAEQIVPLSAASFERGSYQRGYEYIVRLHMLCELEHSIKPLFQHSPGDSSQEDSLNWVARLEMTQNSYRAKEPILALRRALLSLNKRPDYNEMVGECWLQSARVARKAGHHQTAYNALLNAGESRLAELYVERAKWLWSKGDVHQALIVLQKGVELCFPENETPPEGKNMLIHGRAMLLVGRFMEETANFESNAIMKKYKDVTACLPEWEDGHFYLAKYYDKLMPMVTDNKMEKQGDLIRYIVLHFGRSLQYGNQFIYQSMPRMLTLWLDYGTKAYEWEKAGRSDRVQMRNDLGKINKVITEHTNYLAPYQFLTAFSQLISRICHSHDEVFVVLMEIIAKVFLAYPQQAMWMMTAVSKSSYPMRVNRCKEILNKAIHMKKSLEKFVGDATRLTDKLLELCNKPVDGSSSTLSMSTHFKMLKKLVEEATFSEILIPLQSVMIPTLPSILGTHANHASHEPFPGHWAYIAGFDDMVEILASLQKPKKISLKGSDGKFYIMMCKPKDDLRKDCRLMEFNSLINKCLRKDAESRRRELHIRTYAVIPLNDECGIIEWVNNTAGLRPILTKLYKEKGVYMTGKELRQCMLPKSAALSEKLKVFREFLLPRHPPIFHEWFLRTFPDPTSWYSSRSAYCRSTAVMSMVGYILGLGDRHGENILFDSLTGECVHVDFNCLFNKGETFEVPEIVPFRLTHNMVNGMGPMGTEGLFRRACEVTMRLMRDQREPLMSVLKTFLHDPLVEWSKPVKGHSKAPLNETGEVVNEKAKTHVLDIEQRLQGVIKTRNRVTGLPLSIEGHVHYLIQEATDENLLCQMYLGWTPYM
Chain of full-length human ATR protein (ATR/ATRIP) (Q8WXE1 other isoform, or with tags, fused parts or gaps partner): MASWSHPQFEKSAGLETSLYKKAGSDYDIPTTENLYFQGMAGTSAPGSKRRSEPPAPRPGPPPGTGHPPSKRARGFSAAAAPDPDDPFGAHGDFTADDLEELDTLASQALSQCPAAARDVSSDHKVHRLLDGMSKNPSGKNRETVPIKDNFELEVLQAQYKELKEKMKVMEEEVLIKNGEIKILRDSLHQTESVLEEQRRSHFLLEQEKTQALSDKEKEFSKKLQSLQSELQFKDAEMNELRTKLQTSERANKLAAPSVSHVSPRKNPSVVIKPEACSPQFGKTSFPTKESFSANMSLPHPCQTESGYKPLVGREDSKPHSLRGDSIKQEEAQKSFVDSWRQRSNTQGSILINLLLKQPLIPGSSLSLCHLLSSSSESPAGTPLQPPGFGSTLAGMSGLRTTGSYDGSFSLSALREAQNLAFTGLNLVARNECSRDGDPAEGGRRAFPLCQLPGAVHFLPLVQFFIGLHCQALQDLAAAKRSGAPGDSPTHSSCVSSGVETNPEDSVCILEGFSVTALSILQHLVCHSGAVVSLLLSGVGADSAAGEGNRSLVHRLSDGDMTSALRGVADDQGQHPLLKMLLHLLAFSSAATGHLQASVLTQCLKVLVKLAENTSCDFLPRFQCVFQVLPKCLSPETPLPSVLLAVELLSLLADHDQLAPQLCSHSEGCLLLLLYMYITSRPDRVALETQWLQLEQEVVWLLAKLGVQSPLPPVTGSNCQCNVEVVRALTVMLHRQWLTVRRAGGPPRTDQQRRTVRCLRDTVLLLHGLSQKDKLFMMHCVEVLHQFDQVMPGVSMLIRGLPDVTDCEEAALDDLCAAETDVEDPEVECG

Compound | IC50
Cc1cnc(-c2ccn[nH]2)c2nc(N3CCOC[C@H]3C)cc(C3=CCCC3)c12 [Example 33, 4-(cyclopent-1-en-1-yl)-5-methyl-2-[(3R)-3-methylmorpholin-4-yl]-8-(1H-pyrazol-5-yl)-1,7-naphthyridine] | 26.5 nM
Cc1cnc(-c2ccn[nH]2)c2nc(N3CCOC[C@H]3C)cc(-c3ccc(C(=O)N(C)C)cc3)c12 [Example 35, N,N-dimethyl-4-{5-methyl-2-[(3R)-3-methylmorpholin-4-yl]-8-(1H-pyrazol-5-yl)-1,7-naphthyridin-4-yl}benzamide] | 28.8 nM
Cc1cc(-c2cc(N3CCOC[C@H]3C)nc3c(-c4ccn[nH]4)ncc(C)c23)ccc1Cl [Example 36, 4-(4-chloro-3-methylphenyl)-5-methyl-2-[(3R)-3-methylmorpholin-4-yl]-8-(1H-pyrazol-5-yl)-1,7-naphthyridine] | 456 nM
COc1cccc(-c2cc(N3CCOC[C@H]3C)nc3c(-c4ccn[nH]4)ncc(C)c23)c1OC [Example 37, 4-(2,3-dimethoxyphenyl)-5-methyl-2-[(3R)-3-methylmorpholin-4-yl]-8-(1H-pyrazol-5-yl)-1,7-naphthyridine] | 13.8 nM
COc1cc(Cl)ccc1-c1cc(N2CCOC[C@H]2C)nc2c(-c3ccn[nH]3)ncc(C)c12 [Example 38, 4-(4-chloro-2-methoxyphenyl)-5-methyl-2-[(3R)-3-methylmorpholin-4-yl]-8-(1H-pyrazol-5-yl)-1,7-naphthyridine] | 47.9 nM
CSc1ccc(-c2cc(N3CCOC[C@H]3C)nc3c(-c4ccn[nH]4)ncc(C)c23)cc1 [Example 39, 5-methyl-2-[(3R)-3-methylmorpholin-4-yl]-4-[4-(methylsulfanyl)phenyl]-8-(1H-pyrazol-5-yl)-1,7-naphthyridine] | 31.9 nM
Cc1cnc(-c2ccn[nH]2)c2nc(N3CCOC[C@H]3C)cc(-c3cccc(N(C)C)c3)c12 [Example 40, N,N-dimethyl-3-{5-methyl-2-[(3R)-3-methylmorpholin-4-yl]-8-(1H-pyrazol-5-yl)-1,7-naphthyridin-4-yl}aniline] | 34.3 nM
Cc1cnc(-c2ccn[nH]2)c2nc(N3CCOC[C@H]3C)cc(-c3cccc(S(C)(=O)=O)c3)c12 [Example 41, 5-methyl-2-[(3R)-3-methylmorpholin-4-yl]-4-[3-(methylsulfonyl)phenyl]-8-(1H-pyrazol-5-yl)-1,7-naphthyridine] | 24.9 nM
COc1cc(OC)cc(-c2cc(N3CCOC[C@H]3C)nc3c(-c4ccn[nH]4)ncc(C)c23)c1 [Example 42, 4-(3,5-dimethoxyphenyl)-5-methyl-2-[(3R)-3-methylmorpholin-4-yl]-8-(1H-pyrazol-5-yl)-1,7-naphthyridine] | 112 nM
Cc1cnc(-c2ccn[nH]2)c2nc(N3CCOC[C@H]3C)cc(-c3ccnc4ccccc34)c12 [Example 43, 5-methyl-2-[(3R)-3-methylmorpholin-4-yl]-8-(1H-pyrazol-5-yl)-4-(quinolin-4-yl)-1,7-naphthyridine] | 36 nM
Cc1cnc(-c2ccn[nH]2)c2nc(N3CCOC[C@H]3C)cc(-c3cccc4[nH]ccc34)c12 [Example 44, 4-(1H-indol-4-yl)-5-methyl-2-[(3R)-3-methylmorpholin-4-yl]-8-(1H-pyrazol-5-yl)-1,7-naphthyridine] | 35.5 nM
Cc1cnc(-c2ccn[nH]2)c2nc(N3CCOC[C@H]3C)cc(-c3ccc4cc[nH]c4c3)c12 [Example 45, 4-(1H-indol-6-yl)-5-methyl-2-[(3R)-3-methylmorpholin-4-yl]-8-(1H-pyrazol-5-yl)-1,7-naphthyridine] | 94.7 nM
Cc1cnccc1-c1cc(N2CCOC[C@H]2C)nc2c(-c3ccn[nH]3)ncc(C)c12 [Example 46, 5-methyl-2-[(3R)-3-methylmorpholin-4-yl]-4-(3-methylpyridin-4-yl)-8-(1H-pyrazol-5-yl)-1,7-naphthyridine] | 7.78 nM
Cc1cnc(-c2ccn[nH]2)c2nc(N3CCOC[C@H]3C)cc(-c3ccc(CO)s3)c12 [Example 47, (5-{5-methyl-2-[(3R)-3-methylmorpholin-4-yl]-8-(1H-pyrazol-5-yl)-1,7-naphthyridin-4-yl}thiophen-2-yl)methanol] | 4.09 nM
